{"source": "patent US20100178658A1", "about": "“SCREENING ASSAYS FOR INHIBITORS OF BETA AMYLOID PEPTIDE ION CHANNEL FORMATION” (The Regents of the University of Michigan, priority 2007, published 2010)", "key": {"[1]": {"biological_target": "T1, Aβ peptide (1-42) ion channels (Homo sapiens, UniProt P05067)", "T1 construct": "purchased Innovagen, Lund, SE or Bachem Bioscience Inc., King of Prussia, Pa., USA", "T1 sequence (P05067 672-713 limits assumed)": "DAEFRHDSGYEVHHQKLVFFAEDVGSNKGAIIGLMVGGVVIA", "experiment": "Electrophysiological planar lipid bilayer assay for Aβ peptide ion channel activity (bilayer chambers, voltage clamp)", "type": "biochemical", "conditions": "for Inhibition of Aβ pores / ion channel activity of Aβ: electrophysiological screening assay of FIGS. 3-5; for Inhibition of Aβ peptide ion channel formation (pore forming activity): 37 μM Aβ peptide, test compound in molar ratio 1:1, added at the same time as Aβ peptide, planar lipid bilayer; for Disruption of preformed Aβ ion channels: added after current activity was observed", "excerpt": "Ion channel measurements. Screening assays can be performed using single channel recordings in “voltage clamp mode” using Ag/AgCl electrodes (Warner Instruments) in each compartment of the bilayer chambers. Data acquisition and storage can be carried out using custom software in combination with either an EPC-7 patch clamp amplifier from List Medical Electronic (set at a gain of 10 mV pA-1 and a filter cutoff frequency of 3 kHz) or a Geneclamp 500 amplifier from Axon Instruments (with a CV-5B 100GU headstage, set at a gain of 100 mV pA-1 and filter cutoff frequency of 1 kHz). In some embodiments, patch clamp amplifiers, for example, the EPC-7 amplifier can be used for most folded bilayers and the Geneclamp 500 amplifier for most painted bilayers. The data acquisition boards for both amplifiers were set to a sampling frequency of 15 kHz. Current traces can be further filtered using a digital Gaussian low-pass filter with a cutoff frequency of 30 Hz. In some embodiments, the current traces used to generate data that can be recorded at applied potentials 50 mV and filtered at 10 Hz.\nAnalysis of the single channel current traces can be made by computing histograms of the currents from the original current-time traces with ClampFit 9.2 software from Axon Instruments. From these histograms, the main current values can be extracted by fitting a Gaussian function to the peaks in the histograms. Single channel conductances can refer to the main conductance state (i.e. to the dominant peaks in the current histograms).\nThe lipid mixture can be made from POPE:POPG (Avanti Polar Lipids) at 25 mg/ml (1:1) in Heptane. The pretreatment lipid solution can be POPE:POPG 20 mg/mL in Hexane. 2. The bilayer is formed in classic bilayer cups and chamber (Warner Instruments). This 2-part system consists of a black Delrin chamber and a cup of Delrin. Cups and chambers are designed such that addition of equal volumes to the cup and chamber (cis and trans sides) results in a balanced solution height, minimizing any pressure gradients across the bilayer membrane.\nThe bilayer was formed over a 250-μm hole in a partition separating two Delrin compartments, the so called “painting technique.” First, droplets of pretreated lipid solution were placed on both sides of the hole, using 100 μL-Hamilton syringe. Once the droplet of hexane evaporates, both chambers (cis and trans) were symmetrically filled with 900 μL of buffer solution, 100 mM KH2PO4/K2HPO4 pH 7.4, at room temperature.\nWhen the bilayer set-up was already in place with Ag/AgCl electrodes in Faraday cage (a bilayer workstation which provides critical shielding of electromagnetic interference from outside sources and isolate vibration) the lipid solution (POPE:POPG in Heptane) can be painted directly over the hole by using a thin paintbrush. Blowing air underneath the hole using a Pasteur pipette to thin out the bilayer can be used until the appropriate capacitance (80-120 pF) is achieved. A voltage of ±100 mV was applied for at least 10 minutes to test stability of lipid bilayer.\nAβ(1-42) (commercially available from Innovagen, Lund, SE or Bachem Bioscience Inc., King of Prussia, Pa., USA) is initially dissolved in deionized water at 1 mg/ml (221.5 μM) and stored at −20° C. The stock solution can be aliquotted to sufficient amount for each time use (90 μL). After the stable bilayer is constituted, the Aβ(1-42) solution can be added to the trans side of the chamber to obtain a final concentration of 37 μM. The solution is mixed well in the chamber under stirring for 5 minutes.\nCongo Red (Sigma) is dissolved in de-ionized (DI) water to achieve a concentration of 2.5 mg/ml (3.58 mM as a stock solution). (−)Nicotine hemisulfate (Sigma, St. Louis, Mo., USA) was diluted to 1.89 mM in DI water. Tannic acid (Riedel-de Haën, Seelze, Germany) is diluted to 20 mM in DI water."}, "Aβ fibrils": {"biological_target": "T2, Aβ fibrils (Homo sapiens, UniProt P05067)", "T2 construct": "the Aβ fibrils are grown from synthetic Aβ (1-42) peptides by incubating the peptides (74 μM) in ultrapure water", "T2 sequence (P05067 672-713 limits assumed)": "as above", "conditions": "cited from earlier work; for Binding and coating of Aβ fibrils (inhibition of IgG-Aβ fibril interactions): ELISA with monoclonal anti-Aβ IgG clone 6E10, Inbar et al."}}, "note": "Entries after “also recorded” stand apart in the source; their conditions may differ."}
{"molecule": "Nc1c(/N=N/c2ccc(-c3ccc(/N=N/c4cc(S(=O)(=O)O)c5ccccc5c4N)cc3)cc2)cc(S(=O)(=O)O)c2ccccc12", "note": "[Congo Red]", "values": [{"measurement": "Inhibition of Aβ pores / ion channel activity of Aβ", "setting": "[1]", "result": "inhibit Aβ pores"}, {"measurement": "Binding to aggregated Aβ fibrils", "setting": "Aβ fibrils", "result": "bind strongly"}]}
{"molecule": "CN1CCC[C@H]1c1cccnc1", "note": "[nicotine, (−)Nicotine hemisulfate]", "values": [{"measurement": "Inhibition of Aβ peptide ion channel formation (pore forming activity)", "setting": "[1]", "result": "eliminated ion channel pore forming activity"}, {"measurement": "Amount of nicotine needed: disruption of preformed channels versus inhibition of de novo formed channels", "setting": "[1]; comparison of preformed and de novo formed Aβ ion channels", "result": "required more nicotine than the inhibition de novo formed ion channels"}, {"measurement": "Inhibition of Aβ pores / ion channel activity of Aβ", "setting": "[1]", "result": "inhibit Aβ pores"}, {"measurement": "Concentration dependence of disruption of Aβ peptide ion channel activity", "setting": "[1]; nicotine added after observing Aβ current activity, 1:1, 1:2, 1:3 and 1:4 molar ratio", "result": "concentration-dependent disruption of Aβ peptide ion channel activity"}, {"measurement": "Disruption of preformed Aβ ion channels", "setting": "[1]; nicotine at 2-fold molar excess with respect to Aβ peptide (1-42)", "result": "disrupted preformed ion channels"}, {"measurement": "Disruption of preformed Aβ ion channels", "setting": "[1]; nicotine at 4-fold molar excess (4:1) with respect to Aβ peptide (1-42)", "result": "disrupted preformed ion channels almost completely; also recorded: disrupted preformed Aβ peptide ion channel activity almost completely"}, {"measurement": "Time to almost complete disruption of preformed ion channels", "setting": "[1]; nicotine at 4-fold molar excess with respect to Aβ peptide (1-42)", "result": "≤ 10", "unit": "min"}]}
{"molecule": "NCCc1ccc(O)c(O)c1", "note": "[dopamine]", "values": [{"measurement": "Inhibition of Aβ pores / ion channel activity of Aβ", "setting": "[1]", "result": "inhibit Aβ pores"}]}
{"molecule": "O=S(=O)([O-])c1ccc(O)c2ccccc12.[Na+]", "note": "[1-naphthol-4-sulfonate]", "values": [{"measurement": "Binding and coating of Aβ fibrils (inhibition of IgG-Aβ fibril interactions)", "setting": "Aβ fibrils", "result": "do not interact with Aβ fibrils"}]}
{"molecule": "Cc1ccc2c(c1)sc(-c1ccc(N(C)C)cc1)[n+]2C.[Cl-]", "note": "[ThT, Thioflavin T]", "values": [{"measurement": "Binding and coating of Aβ fibrils (inhibition of IgG-Aβ fibril interactions)", "setting": "Aβ fibrils", "result": "bind and coat Aβ fibrils"}]}
{"molecule": "Diaminoacridine [DAA]", "values": [{"measurement": "Binding and coating of Aβ fibrils (inhibition of IgG-Aβ fibril interactions)", "setting": "Aβ fibrils", "result": "bind and coat Aβ fibrils"}]}
{"molecule": "O=C(OC[C@H]1O[C@@H](OC(=O)c2cc(O)c(O)c(OC(=O)c3cc(O)c(O)c(O)c3)c2)[C@H](OC(=O)c2cc(O)c(O)c(OC(=O)c3cc(O)c(O)c(O)c3)c2)[C@@H](OC(=O)c2cc(O)c(O)c(OC(=O)c3cc(O)c(O)c(O)c3)c2)[C@@H]1OC(=O)c1cc(O)c(O)c(OC(=O)c2cc(O)c(O)c(O)c2)c1)c1cc(O)c(O)c(OC(=O)c2cc(O)c(O)c(O)c2)c1", "note": "[Tannic acid]", "values": [{"measurement": "Inhibition of Aβ peptide ion channel formation (pore forming activity)", "setting": "[1]", "result": "Inhibition of Aβ ion channel formation"}, {"measurement": "Inhibition of Aβ pores / ion channel activity of Aβ", "setting": "[1]", "result": "inhibit ion channel activity of Aβ"}, {"measurement": "Inhibition of Aβ pores / ion channel activity of Aβ", "setting": "[1]; listed as tannic acid", "result": "inhibit Aβ pores"}, {"measurement": "Binding to aggregated Aβ fibrils", "setting": "Aβ fibrils", "result": "bind strongly"}]}
